Measurements taken from ChEMBL document CHEMBL3608280, “Tetramic Acids and Pyridone Alkaloids from the Endolichenic Fungus Tolypocladium cylindrosporum” (J Nat Prod, 2015).
pIC50: −log10 of the molar value.

What was measured:
A2780 = assay: Cytotoxicity against human A2780 cells assessed as growth inhibition after 48 hrs by MTT assay; format: functional, cell-based; conditions: A2780, 48 h
K562 = assay: Cytotoxicity against human K562 cells assessed as growth inhibition after 48 hrs by MTT assay; format: functional, cell-based; conditions: K562, 48 h
A549 [1] = assay: Cytotoxicity against human A549 cells assessed as growth inhibition after 48 hrs by MTT assay; format: functional, cell-based; conditions: A549, 48 h
MDA-MB-231 = assay: Cytotoxicity against human MDA-MB-231 cells assessed as growth inhibition after 48 hrs by MTT assay; format: functional, cell-based; conditions: MDA-MB-231, 48 h
A549 [2] = assay: Cell cycle arrest in human A549 cells assessed as accumulation at G1 phase at 1 uM after 24 hrs by propidium iodide staining-based flow cytometric analysis (reference value: 52.73%); format: functional
A549 [3] = assay: Cell cycle arrest in human A549 cells assessed as accumulation at G2/M phase at 2 uM after 24 hrs by propidium iodide staining-based flow cytometric analysis (reference value: 10.29%); format: functional
A549 [4] = assay: Induction of apoptosis in human A549 cells after 48 hrs by annexin V-FITC/propidium iodide staining-based flow cytometric analysis; format: functional, cell-based
A549 [5] = assay: Induction of apoptosis in human A549 cells assessed as early apoptotic cells at 2 uM after 48 hrs by annexin V-FITC/propidium iodide staining-based flow cytometric analysis (reference value: 0.86%); format: functional
A549 [6] = assay: Cell cycle arrest in human A549 cells assessed as accumulation at G2/M phase at 1 uM after 24 hrs by propidium iodide staining-based flow cytometric analysis (reference value: 10.29%); format: functional
A549 [7] = assay: Cell cycle arrest in human A549 cells assessed as accumulation at S phase at 2 uM after 24 hrs by propidium iodide staining-based flow cytometric analysis (reference value: 36.98%); format: functional
A549 [8] = assay: Cell cycle arrest in human A549 cells assessed as accumulation at G1 phase at 2 uM after 24 hrs by propidium iodide staining-based flow cytometric analysis (reference value: 52.73%); format: functional
A549 [9] = assay: Induction of apoptosis in human A549 cells assessed as dead cells at 1 uM after 48 hrs by annexin V-FITC/propidium iodide staining-based flow cytometric analysis (reference value: 0.43%); format: functional
A549 [10] = assay: Induction of apoptosis in human A549 cells assessed as dead cells at 2 uM after 48 hrs by annexin V-FITC/propidium iodide staining-based flow cytometric analysis (reference value: 0.43%); format: functional
A549 [11] = assay: Induction of apoptosis in human A549 cells assessed as late apoptotic cells at 2 uM after 48 hrs by annexin V-FITC/propidium iodide staining-based flow cytometric analysis (reference value: 3.94%); format: functional
A549 [12] = assay: Induction of apoptosis in human A549 cells assessed as early apoptotic cells at 1 uM after 48 hrs by annexin V-FITC/propidium iodide staining-based flow cytometric analysis (reference value: 0.86%); format: functional
A549 [13] = assay: Cell cycle arrest in human A549 cells assessed as accumulation at G0/G1 phase after 24 hrs by propidium iodide staining-based flow cytometric analysis; format: functional
A549 [14] = assay: Cell cycle arrest in human A549 cells assessed as accumulation at S phase at 1 uM after 24 hrs by propidium iodide staining-based flow cytometric analysis (reference value: 36.98%); format: functional
A549 [15] = assay: Induction of apoptosis in human A549 cells assessed as late apoptotic cells at 1 uM after 48 hrs by annexin V-FITC/propidium iodide staining-based flow cytometric analysis (reference value: 3.94%); format: functional

SMILES	pIC50 (A2780)	pIC50 (K562)	pIC50 (A549 [1])	pIC50 (MDA-MB-231)	other results
COc1cccc2c1C(=O)c1c(O)c3c(c(O)c1C2=O)C[C@@](O)(C(=O)CO)C[C@@H]3O[C@H]1C[C@H](N)[C@H](O)[C@H](C)O1 [DOXORUBICIN]	6.22	5.96	6.29		
C/C=C\C[C@H](C)C[C@H](C)/C(O)=C1/C(=O)N[C@H]([C@H](O)c2ccc(O)cc2)C1=O	< 4.40	< 4.40	< 4.40	< 4.40	
C/C=C\C[C@H](C)C[C@H](C)/C(O)=C1/C(=O)N[C@@H]([C@@H](O)c2ccc(O)cc2)C1=O	< 4.40	< 4.40	< 4.40	< 4.40	
C=C[C@@H]1C[C@H](C)C[C@H](C)C1c1c(O)cc[nH]c1=O (stereo partly drawn)	< 4.40	< 4.40	< 4.40	< 4.40	
C/C=C\C[C@@H](C)C[C@@H](C)/C(O)=C1/C(=O)N/C(=C\c2ccc(O)cc2)C1=O	< 4.40	< 4.40	< 4.40	< 4.40	
Cc1cc(O)c2oc(=O)c(O)c(-c3ccc(O)cc3)c2c1	< 4.40	< 4.40	< 4.40	< 4.40	
CC1Oc2c(-c3ccc(O)cc3)c[nH]c(=O)c2[C@@H]2[C@@H](C)C[C@@H](C)C[C@@H]12 (stereo partly drawn)	< 4.40	< 4.40	< 4.40	< 4.40	
C=C[C@@H]1C[C@H](C)C[C@H](C)C1c1c(O)ccn(O)c1=O (stereo partly drawn)	5.87	5.74	5.91	5.79	Activity (A549 [2]): 78.16%; Activity (A549 [3]): 1.35%; Activity (A549 [4]): Dose-dependent effect; Activity (A549 [5]): 1.06%; Activity (A549 [6]): 4.35%; Activity (A549 [7]): 16.02%; Activity (A549 [8]): 82.63%; Activity (A549 [9]): 4.25%; Activity (A549 [10]): 5.41%; Activity (A549 [11]): 28.3%; Activity (A549 [12]): 3%; Activity (A549 [13]): Dose-dependent effect; Activity (A549 [14]): 17.49%; Activity (A549 [15]): 21.94%
C/C=C\C[C@H](C)C[C@H](C)/C(O)=C1/C(=O)N/C(=C\c2ccc(O)cc2)C1=O	< 4.40	< 4.40	< 4.40	< 4.40	
CC(C)(O)[C@@H]1C[C@@H](O)[C@]2(C)[C@H](CC[C@@]3(C)[C@H]2CC[C@H]2Cc4c([nH]c5ccccc45)[C@@]23C)O1 [TERPENDOLE E]	4.51	4.41	4.73	4.41	
